Laboratory results taken from paper PMC5786472 (Cell, 2018).
Where no end group is shown, it is not given here.

Key:
[1] = tested on: E. coli K-12 strain W3110; assay type: cell-based, Escherichia coli
[2] = tested on: E. coli; assay: SLAY screen of a defined library of five surface-displayed peptides; assay type: cell-based, Escherichia coli
[3] = tested on: E. coli conferring New-Delhi metallo-beta-lactamase (NDM) resistance; conditions: 10mM Tris (pH7.4) + 25mM NaCl, 20 hours, 37°C, at least 99.9% killing of inoculum; representative of three independent experiments
[4] = tested on: E. coli W3110, Acinetobacter baumannii (Ab 5075), Pseudomonas aeruginosa (PA14), NDM E. coli; conditions: 20 h

| Compound | effect of surface-displayed peptide on growth [1] | MBC NDM E. coli [3] [µM] | other results |
| --- | --- | --- | --- |
| YPYDVPDYAAYPYDVPDYAA [Peptide 2xHA] | grew similarly at all IPTG concentrations |  | log2 fold [2]: −0.01 |
| LPLPSCSSHGGDADNTSQRN [Peptide P11] |  | 32 |  |
| DATPHAALFFTVKDHTAGDN [Peptide P15] |  | 64 |  |
| CC(C)C[C@H](NC(=O)[C@H](CCCNC(=N)N)NC(=O)CNC(=O)CNC(=O)[C@@H](N)CCCNC(=N)N)C(=O)N[C@H]1CSSC[C@@H](C(=O)N[C@H](C(=O)NCC(=O)N[C@@H](CCCNC(=N)N)C(N)=O)C(C)C)NC(=O)[C@H](C(C)C)NC(=O)[C@@H]2CSSC[C@H](NC(=O)[C@H](Cc3ccc(O)cc3)NC1=O)C(=O)N[C@@H](CCCNC(=N)N)C(=O)N[C@@H](CCCNC(=N)N)C(=O)N[C@@H](CCCNC(=N)N)C(=O)N[C@@H](Cc1ccccc1)C(=O)N2 [Protegrin 1] | strong antimicrobial activity |  |  |
| RLVRILVSKRPVAIKPYFRL [Peptide P1] |  |  | MBC over all bacteria tested [4]: less than 2 μM |
| dermaseptin | strong antimicrobial activity |  |  |
